Results as given in PMC11509018, “Evaluation of the Role of Tanshinone I in an In Vitro System of Charcot-Marie-Tooth Disease Type 2N” (International Journal of Molecular Sciences, 2024).

Target: T1, AlaRS E337K binding to Nrp1 (Homo sapiens, UniProt P49588, E337K)
T1 construct: expressed in transfected cells
T1 sequence (P49588 1-968 E337K): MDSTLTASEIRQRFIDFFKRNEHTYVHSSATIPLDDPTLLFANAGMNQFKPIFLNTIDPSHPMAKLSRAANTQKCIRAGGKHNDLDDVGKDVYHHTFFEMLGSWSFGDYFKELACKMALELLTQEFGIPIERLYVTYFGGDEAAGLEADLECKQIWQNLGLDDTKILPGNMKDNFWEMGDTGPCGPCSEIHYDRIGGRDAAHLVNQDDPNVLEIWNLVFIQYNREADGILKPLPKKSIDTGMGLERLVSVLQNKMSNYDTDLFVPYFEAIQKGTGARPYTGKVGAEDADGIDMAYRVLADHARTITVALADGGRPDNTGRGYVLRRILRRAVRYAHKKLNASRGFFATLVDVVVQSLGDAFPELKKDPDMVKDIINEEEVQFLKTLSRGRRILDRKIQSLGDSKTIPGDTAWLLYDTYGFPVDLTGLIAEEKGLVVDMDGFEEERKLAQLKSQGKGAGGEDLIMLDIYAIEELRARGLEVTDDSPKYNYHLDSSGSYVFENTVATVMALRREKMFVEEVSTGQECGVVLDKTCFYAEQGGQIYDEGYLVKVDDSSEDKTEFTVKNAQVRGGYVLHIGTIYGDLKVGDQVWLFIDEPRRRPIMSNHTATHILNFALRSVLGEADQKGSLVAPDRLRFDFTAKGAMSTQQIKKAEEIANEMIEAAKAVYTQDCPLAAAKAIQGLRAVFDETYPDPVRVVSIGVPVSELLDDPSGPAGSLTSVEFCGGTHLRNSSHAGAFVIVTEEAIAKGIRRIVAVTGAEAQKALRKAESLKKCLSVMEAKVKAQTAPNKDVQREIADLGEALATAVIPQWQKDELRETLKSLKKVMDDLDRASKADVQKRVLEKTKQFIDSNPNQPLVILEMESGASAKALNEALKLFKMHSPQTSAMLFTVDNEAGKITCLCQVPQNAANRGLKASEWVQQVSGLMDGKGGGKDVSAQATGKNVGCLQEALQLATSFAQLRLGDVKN
Assay: Co-IP of HA-AlaRS mutant with Nrp1 in transfected cells
Format: cell-based
Conditions: 20 µM Tanshinone I for 24 h, ImageJ, average of three repeats
Experimental: To further investigate whether Tanshinone I-induced conformational changes in AlaRS CMT mutants affect their interaction with Nrp1, Co-IP experiments were performed in cells treated with Tanshinone I. By comparing Co-IP results obtained before and after treatment, we assessed the influence of the drug on the binding strength and mode between the AlaRS CMT mutants and Nrp1. […] To confirm the direct effect of Tanshinone I on the interaction between AlaRS CMT mutants and Nrp1, pull-down experiments were performed. […] Given that the interaction between AlaRS mutants and Nrp1 is associated with disease progression in CMT, the ability of Tanshinone I to disrupt this binding highlights its potential to intervene in the pathogenic mechanisms of these diseases.
Figure 7 The impact of Tanshinone I on the interaction between AlaRS mutants and Nrp1. (A) Co-IP assays were conducted to assess the binding between HA-AlaRS mutants and Nrp1, both with and without treatment with 20 µM Tanshinone I for 24 h. […] (C) Pull down assay was performed to detect the binding between AlaRS mutants and GST-Nrp1 b1 with or without 20 µM Tanshinone I. (D) Relative quantification statistics of the AlaRS mutants pulled down from the GST pull down experiments after Tanshinone I treatment were performed using ImageJ. (E) The cell viability of 293T and NSC34 cells treated with different concentrations of Tanshinone I was assessed using the CCK-8 assay over a 24 h period. TEXT PRINTED IN THE PICTURE: (B) Tanshinone I: Mean density band (N71Y): 0.60; Mean density band (G102R): 0.53; Mean density band (R326W): 0.50; Mean density band (R329H): 0.50; Mean density band (E337K): 0.62 | (D) Tanshinone I: Mean density band (N71Y): 0.82; Mean density band (G102R): 0.76; Mean density band (R326W): 0.84; Mean density band (R329H): 0.84; Mean density band (E337K): 0.90
Total protein was extracted from cells using RIPA buffer (50 mM Tris-HCl pH 7.4, 150 mM NaCl, 1% NP40, 1 mM EDTA) supplemented with a protease and phosphatase inhibitor cocktail (Roche, Basel, Switzerland). After SDS-PAGE, the protein on the gel was transferred to a PVDF membrane (Bio-Rad, Hercules, CA, USA) and then blocked with 5% non-fat dry milk in TBST for 1 h. Then, the membranes were incubated with the indicated primary antibodies and corresponding HRP-conjugated secondary antibodies. Signals were detected using the Bio-Rad ChemiDoc system (Bio-Rad, Shanghai, China). The following antibodies were used: Flag (Ray antibody biotech, Beijing, China, 1:3000), HA (Ray antibody biotech, Beijing, China, 1:3000), and GAPDH (Ray antibody biotech, Beijing, China, 1:5000).
To detect the binding of Nrp1 and AlaRS mutants in cells, whole-cell lysates (500 μg) were treated overnight with 2 μg of anti-Flag antibody in RIPA buffer. Next, Protein A/G agarose beads (#sc-2003, Santa Cruz Biotechnology, Santa Cruz, CA, USA) were applied to the lysates and the samples were further treated for 8–12 h with rotation. Samples were washed three times with RIPA buffer. Subsequently, the immunoprecipitations were resuspended into 2 × SDS-loading buffer. The samples were then boiled for 10 min and detected using Western blot. The experiment was repeated three times.

## Cc1coc2c1C(=O)C(=O)c1c-2ccc2c(C)cccc12 [Tanshinone I]
  Mean density band (E337K), relative quantification of AlaRS mutant immunoprecipitated: 0.62
